Broadly, the EC50 is the concentration needed to bring the measured effect to its halfway point. Lower therefore signals a more potent agent. For orientation: Emax means the maximal effect, on the per cent scale that the assay sets.

Among the data in patent publication US20120214847A1, “2-[1-PHENYL-5-HYDROXY-4a-SUBSTITUTED-HEXAHYDROCYCLOPENTA[F]INDAZOL-5-YL]ETHYL PHENYL DERIVATIVES AS GLUCOCORTICOID RECEPTOR LIGANDS” (Merck Sharp & Dohme Corp., priority 2009, published 2012) are EC50 and Emax values, retold here.

In the experiment the target is T1, human GR (Homo sapiens, UniProt P04150).
T1 construct: naturally expresses the human GR; endogenous in cells
T1 sequence (P04150 1-777): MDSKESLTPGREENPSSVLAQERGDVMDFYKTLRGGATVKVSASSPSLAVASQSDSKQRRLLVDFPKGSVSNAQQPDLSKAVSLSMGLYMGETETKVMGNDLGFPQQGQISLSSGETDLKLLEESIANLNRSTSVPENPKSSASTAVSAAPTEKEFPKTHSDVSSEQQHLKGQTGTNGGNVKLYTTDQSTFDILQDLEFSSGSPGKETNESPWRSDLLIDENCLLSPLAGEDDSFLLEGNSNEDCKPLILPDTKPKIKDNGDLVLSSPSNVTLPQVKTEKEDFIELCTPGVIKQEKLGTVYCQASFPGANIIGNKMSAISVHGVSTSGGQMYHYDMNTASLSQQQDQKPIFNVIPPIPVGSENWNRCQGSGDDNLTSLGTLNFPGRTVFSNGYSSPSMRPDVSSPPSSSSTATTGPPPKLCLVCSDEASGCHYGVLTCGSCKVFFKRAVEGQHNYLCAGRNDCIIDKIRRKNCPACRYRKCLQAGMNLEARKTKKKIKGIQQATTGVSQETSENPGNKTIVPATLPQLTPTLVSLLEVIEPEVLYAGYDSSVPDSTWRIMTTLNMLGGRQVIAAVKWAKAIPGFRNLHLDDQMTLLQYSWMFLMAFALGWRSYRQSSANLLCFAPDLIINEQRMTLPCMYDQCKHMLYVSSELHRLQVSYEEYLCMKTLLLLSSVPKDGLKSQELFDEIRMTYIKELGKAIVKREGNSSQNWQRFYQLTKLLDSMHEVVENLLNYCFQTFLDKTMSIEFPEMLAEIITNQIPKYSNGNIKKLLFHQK
Put plainly: Transrepression assay (GITAR), TNFα-β-lactamase reporter in U937 cells. Particulars: for EC50: U937 cells, IP = inflection point; for Emax: U-937, U937 cells, activity repressed by 100 nM dexamethasone alone set as 100%. It counts as cell-based. The procedure, abridged: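 U937 cells stably carrying TNFα promoter–β-lactamase, endogenous GR, preincubated with compound 30–45 min at 37° C., then stimulated with 5 ng/ml PMA plus 100 ng/ml LPS for ~18 h. CCF2-AM read-out; repression by 100 nM dexamethasone set as 100%.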

Structures are written as SMILES.

As to `NC(=O)c1cc(F)cnc1CC[C@]1(O)CCC2=Cc3c(cnn3-c3ccc(F)cc3)C[C@@]21C1CC1` [Example 4, 2-{2-[(4aR,5R)-4a-Cyclopropyl-1-(4-fluorophenyl)-5-hydroxy-1,4,4a,5,6,7-hexahydrocyclopenta[f]indazol-5-yl]ethyl}-5-fluoropyridine-3-carboxamide], the response was half-maximal at 83 nM (EC50) and the maximal effect (Emax) is 71%.
In the same order, the values of `CC[C@]12Cc3cnn(-c4ccc(F)cc4)c3C=C1CC[C@@]2(O)CC(O)c1ccccn1` (stereo partly drawn) [Example 68, (4aS,5R)-4a-Ethyl-1-(4-fluorophenyl)-5-[2-hydroxy-2-(pyridin-2-yl)ethyl]-1,4,4a,5,6,7-hexahydrocyclopenta[f]indazol-5-ol] are 18 nM and 71%.
For `N#Cc1ccnc(CC[C@]2(O)CCC3=Cc4c(cnn4-c4ccc(F)cc4)C[C@@]32C2CC2)c1` [Example 35, 2-{2-[(4aR,5R)-4a-Cyclopropyl-1-(4-fluorophenyl)-5-hydroxy-1,4,4a,5,6,7-hexahydrocyclopenta[f]indazol-5-yl]ethyl}pyridine-4-carbonitrile], in that order: 73 nM and 87%.
`CC[C@]12Cc3cnn(-c4ccc(F)cc4)c3C=C1CC[C@@]2(O)CCc1ncccc1C(N)=O` [Example 52, 2-{2-[(4aS,5R)-4a-Ethyl-1-(4-fluorophenyl)-5-hydroxy-1,4,4a,5,6,7-hexahydrocyclopenta[f]indazol-5-yl]ethyl}pyridine-3-carboxamide] came in with a concentration giving a half-maximal response (EC50) of 53 nM and an Emax of 85%.
`CC[C@]12Cc3cnn(-c4ccc(F)cc4)c3C=C1CC[C@@]2(O)CCc1cncc(F)c1` [Example 21, (4aS,5R)-4a-Ethyl-1-(4-fluorophenyl)-5-[2-(5-fluoropyridin-3-yl)ethyl]-1,4,4a,5,6,7-hexahydrocyclopenta[f]indazol-5-ol] showed an EC50 of 95 nM and an Emax of 87%.
In the same order, the values of `NC(=O)c1cc(F)ccc1CC[C@]1(O)CCC2=Cc3c(cnn3-c3ccc(F)cc3)C[C@@]21C1CC1` [Example 39, 2-{2-[(4aR,5R)-4a-Cyclopropyl-1-(4-fluorophenyl)-5-hydroxy-1,4,4a,5,6,7-hexahydrocyclopenta[f]indazol-5-yl]ethyl}-5-fluorobenzamide] are 83 nM and 71%.
In the case of `CC[C@]12Cc3cnn(-c4cccc(F)c4)c3C=C1CC[C@@]2(O)CCc1cccc(F)c1C(N)=O` [Example 12, 2-{2-[(4aS,5R)-4a-Ethyl-1-(3-fluorophenyl)-5-hydroxy-1,4,4a,5,6,7-hexahydrocyclopenta[f]indazol-5-yl]ethyl}-6-fluorobenzamide], a half-maximal effect (EC50) was put at 25 nM and the Emax came to 87%.
On to `NS(=O)(=O)c1ccccc1CC[C@]1(O)CCC2=Cc3c(cnn3-c3cccnc3)C[C@@]21C1CC1` [Example 24, 2-{2-[(4aR,5R)-4a-Cyclopropyl-5-hydroxy-1-(pyridin-3-yl)-1,4,4a,5,6,7-hexahydrocyclopenta[f]indazol-5-yl]ethyl}benzenesulfonamide], for which the half-maximal effective concentration (EC50) came to 7 nM and the Emax is 83%.
